Experimental data published in patent US5707559A, “Chemiluminescent 1,2-dioxetane compounds” (priority 1987, dated 1998).

How the values were obtained:
[1] = Triggering the chemiluminescence of hydroxy-substituted dioxetanes with base; conditions: for base-induced chemiluminescence: base-induced decomposition, room temperature (2b: potassium t-butoxide in o-xylene, 25° C.)
Procedure: (§1) A solution of the dioxetane in a suitable solvent (e.g. o-xylene) was placed in the reaction vial as described above. The vial was placed in the sample holder which was maintained at a temperature such that thermal decomposition of the dioxetane was negligible. Instrument parameters were selected as above and data collection started. A solution of the releasing agent (e.g. base or fluoride) preferably in the reaction solvent was injected by syringe into the rapidly stirred dioxetane solution. The volume of releasing agent added was generally less than 5% of the total volume so that temperature fluctuation of the sample during the time course of the decay was minimal. The pseudo-first order decay was monitored for at least three half-lives.
1. Triggering the Chemiluminescence of Hydroxy-Substituted Dioxetanes with Base: Potassium tert-butoxide induced decomposition of 2b. […].

[2] = Thermal decomposition of dioxetanes monitored by decay of chemiluminescence (activation parameters in xylene); format: physicochemical
Procedure: Rates of dioxetane decomposition were monitored by the decay of chemiluminescence of aerated solutions. A cylindrical Pyrex vial equipped with magnet stir bar was filled with 3-4 mL of the reaction solvent, sealed with a Teflon-lined screw cap and placed in the thermostatted sample block of the chemiluminescence-measuring apparatus (Black Box). Temperature control was provided by an external circulating water bath. Appropriate values for the instrument gain and optical slit size were selected. […]. The vial was sealed with a Teflon-lined screw cap to prevent evaporation when high temperatures were used. Measurement of the signal was begun by opening the shutter. The chemiluminescent decay was generally recorded for at least three half-lives. Calculation of the first-order rate constant, k, from the In(Intensity) vs. time data was performed by a computer program utilizing a standard least-squares treatment. The correlation coefficient, r, was typically at least 0.999 and varied less than 5% between replicate samples. The observed rate was not measurably concentration dependent.
Activation parameters for decomposition of the dioxetanes were calculated from plots of In k vs. 1/T (Arrhenius eq.) or In k/t vs. 1/T (Eyring eq.) by a standard least-squares linear regression analysis.
Activation Energies for Decomposition of Dioxetanes 2 in Xylene.

[3] = for fluoride induced chemiluminescence in polar aprotic solvents: polar aprotic solvents such as acetonitrile
Procedure: as §1
2. Triggering the Chemiluminescence of Silyloxy-Substituted Dioxetanes with Fluorde Ion: Fluoride ion induced decomposition of 2c. […]. […]. A spectrum of the chemiluminescence obtained from the fluoride triggering of 2c in 1:1 aqueous/2-methoxyethanol is shown in FIG. 1 with the solid line. The fluorescence of the cleavage product (methyl 6-hydroxy-2-naphthoate) from the dioxetane is also shown with the dashed line for comparison.

[4] = Triggering properties of further prepared dioxetanes (general statement)
[5] = tested on: Aryl esterase (carboxylic ester hydrolase) from porcine liver; assay: Enzymatic triggering of chemiluminescence with aryl esterase; format: biochemical; conditions: for effect of added competing esterase substrate on light intensity: […] solution added at maximum emission of 2e, pH 7.6 phosphate buffer, 37° C.
Procedure: (§2) A secondary stock solution of the acetate-protected dioxetane 2e was made by evaporating an aliquot of the methylene chloride stock equivalent to 10 micromoles of dioxetane and dissolving in 5.0 mL of 2-methoxyethanol to give a final concentration of 0.002M. […] Buffer solutions prepared in distilled water were 0.05M phosphate pH 7.6 and 8.0, 0.02M Tris (tris-hydroxymethylaminomethane maleate) pH 7.6, and pH 9.0 phosphate/borate buffer. Aryl esterase (also called carboxylic ester hydrolase (P-5221)) from porcine liver was purchased from Sigma Chemical Co. as a suspension of 11 mg of protein per mL in 3.2M (NH4)2 SO4 solution pH 8.0. Each mg of protein is equivalent to 260 Units, where 1 Unit is defined as the amount which will hydrolyze 1 micromole of ethyl butyrate in 1 minute at pH 8.0, 25° C. […] Injection of 1 μL of (0.26 units) of aryl esterase to the stirred solution caused a chemiluminescent signal to appear. The intensity reached a maximum at about 3 minutes and decayed over a 30 minute period.
3.) When distilled water was substituted for the Tris buffer, no chemiluminescence signal was observed, but on adding Tris buffer to this solution light emission similar to that above was produced. […] Addition of untreated enzyme preparation to this solution again produced light. […] The emission could be totally extinguished by addition of sufficient SDS. The decrease in light emission is not due to photophysical quenching of the excited state since thermal decomposition in the same solvent system at elevated temperatures results in readily detectable chemiluminescence.
This type of behavior explains the effect of the addition of the known esterase substrates α-naphthyl acetate and β-naphthyl acetate. […] A solution of 25 μL of the dioxetane stock (0.002M) in 3 mL of pH 7.6 phosphate buffer maintained at 37° C. was treated with 5 μL of the enzyme to initiate the chemiluminescence. At the point of maximum emission […] of 0.011M solution of either α- or β-naphthyl acetate were added.

[6] = format: physicochemical; conditions: 0.002M in 2-methoxyethanol, stored at 0° C.
Procedure: as §2
Stability of Enzyme and Dioxetane to Reaction Conditions. Many dioxetanes are known to be destroyed via a non-luminescent pathway by acid catalyzed processes in protic solvents. Similarly, amines are also known to cause the catalytic destruction of dioxetanes via an electron-transfer process. […]

[7] = molecular target: T1, Acetylcholinesterase from human erythrocytes (Homo sapiens, UniProt P22303); assay: Enzymatic triggering of chemiluminescence with acetylcholinesterase; format: biochemical; conditions: 0.05M phosphate buffer, pH 8.0, 37.0° C.
T1 construct: purchased Sigma Chemical Co. C-3389; host or cells: human erythrocytes
Text: Acetylcholinesterase, an enzyme of considerable biological significance, hydrolyzes acetylcholine to choline and acetic acid under physiological conditions. It was of interest to determine whether this enzyme would also initiate the chemiluminescent decomposition of the acetyl-protected dioxetane 2e by removal of the acetyl group. Acetylcholinesterase (C-3389) from human erythrocytes was purchased from Sigma Chemical Co. as a lyophilized powder containing phosphate buffer salts. […]. Addition of more dioxetane during this period generated more light.

[8] = tested on: alkaline phosphatase from Bovine Intestinal Mucosa; assay: Enzymatic triggering of chemiluminescence with alkaline phosphatase (Type VII-S); format: biochemical; conditions: 2-amino-2-methyl-1-propanol buffer pH 10.3, 1.5M, 37° C., 10 μL enzyme suspension
Procedure: A cuvette containing 3 mL of a buffer solution of 2-amino-2-methyl-l-propanol (Sigma Chemical Co., pH=10.3, 1.5M) was placed in the black box at 37° C. A portion (200 μL) of the dioxetane stock solution (6d in CH2 Cl2) was added to this buffer solution. Subsequent addition of 10 μL of an alkaline phosphatase suspension [Sigma, Type VII-S from Bovine Intestinal Mucosa, suspension in 3.2M (NH4)2 SO4 ] gave rise to chemiluminescence over a period of approximately 2-3 min indicating the enzymatic triggering of the dioxetane.

[9] = 25° C.; cited from earlier work
[10] = 1 μL (0.26 units) aryl esterase, pH 7.6 Tris buffer, 25° C.

T1 sequence (P22303 other isoform, or with tags, fused parts or gaps): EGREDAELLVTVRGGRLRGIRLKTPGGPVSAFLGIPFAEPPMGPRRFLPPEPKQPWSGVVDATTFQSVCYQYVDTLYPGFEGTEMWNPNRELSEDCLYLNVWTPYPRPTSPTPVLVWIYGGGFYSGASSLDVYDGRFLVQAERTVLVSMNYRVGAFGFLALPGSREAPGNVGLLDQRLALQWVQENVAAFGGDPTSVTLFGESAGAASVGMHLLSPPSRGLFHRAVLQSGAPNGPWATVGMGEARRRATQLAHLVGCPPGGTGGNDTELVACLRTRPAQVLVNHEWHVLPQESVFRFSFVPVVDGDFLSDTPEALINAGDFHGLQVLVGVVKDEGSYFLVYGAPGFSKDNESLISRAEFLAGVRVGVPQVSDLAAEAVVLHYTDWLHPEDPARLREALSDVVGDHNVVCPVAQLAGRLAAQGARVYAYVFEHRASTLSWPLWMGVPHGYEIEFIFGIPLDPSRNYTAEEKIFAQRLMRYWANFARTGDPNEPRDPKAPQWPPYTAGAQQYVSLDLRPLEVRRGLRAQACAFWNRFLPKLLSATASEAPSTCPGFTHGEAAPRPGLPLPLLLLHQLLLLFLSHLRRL

**Q.** Which “base-induced chemiluminescence” value [1] does the source give for `COC1(c2ccc3cc(O)ccc3c2)OOC12C1CC3CC(C1)CC2C3` (stereo not shown) [Dioxetane 2b, 4-(6-Hydroxy-2-naphthyl)-4-methoxyspiro[1,2-dioxetane-3,2'-adamantane]] here?
**A.** intense blue chemiluminescence

**Q.** And the “base-induced chemiluminescence with other bases” value ([1]; methanol with KOH as base, or o-xylene with n-BuLi as base)?
**A.** bright blue chemiluminescence with similar decay rates

**Q.** Which results are given for `COC1(c2ccc3cc(O[Si](C)(C)C(C)(C)C)ccc3c2)OOC12C1CC3CC(C1)CC2C3` (stereo not shown) [Dioxetane 2c]?
**A.** Ea (activation energy for decomposition) ([2]; decomposition in xylene): 27.0; half-life of chemiluminescence decay, fluoride ion induced ([3]; 10^-4 M dioxetane, 0.01M tetrabutylammonium fluoride in 2-methoxyethanol, room temperature, pseudo-first order, 100 µM): about 20 minutes; fluoride induced chemiluminescence ([3]; tetrabutylammonium fluoride in 2-methoxyethanol): Blue chemiluminescence was produced

**Q.** Which “fluoride induced chemiluminescence in polar aprotic solvents” value [3] does the source give for `COC1(c2ccc3cc(O[Si](c4ccccc4)(c4ccccc4)C(C)(C)C)ccc3c2)OOC12C1CC3CC(C1)CC2C3` (stereo not shown) [Dioxetane 2d] here?
**A.** bright chemiluminescence

**Q.** And the “triggering properties” value [4]?
**A.** triggering properties similar to dioxetanes 2a-c and 2e

**Q.** Which “duration of thermal chemiluminescence” value ([2]; aliquot injected into 3 mL of o-xylene at 95° C.) does the source give for `COC1(c2ccc3cc(OC(C)=O)ccc3c2)OOC12C1CC3CC(C1)CC2C3` (stereo not shown) [Dioxetane 2e, 4-(6-Acetoxy-2-naphthyl)-4-methoxyspiro[1,2-dioxetane-3,2'-adamantane]] here?
**A.** persisted for several hours

**Q.** And the “period over which chemiluminescence decayed” value [5, 10]?
**A.** 30 min

**Q.** And the “time at which chemiluminescence intensity reached a maximum” value [5, 10]?
**A.** about 3 minutes

**Q.** What about the “maximum light intensity IMAX versus temperature” value ([5]; 1 μL enzyme in Tris buffer at 25, 37 and 50° C.) of the same molecule?
**A.** increased with increasing temperature

**Q.** What about the “chemiluminescence with enzyme medium only” value ([5]; 3 mL Tris buffer containing 5 μL of 3 M (NH4)2SO4, no enzyme, 25° C.) of the same molecule?
**A.** produced no chemiluminescence

**Q.** What about the “chemiluminescence signal without enzyme” value ([5]; 150 μL (0.3 μmol) dioxetane stock in 3.0 mL pH 7.6 Tris buffer, 25° C., before enzyme) of the same molecule?
**A.** no chemiluminescence signal was detected

**Q.** And the “chemiluminescence with denatured enzyme” value ([5]; enzyme heated to 90° C. in Tris buffer and cooled to 25° C.)?
**A.** resulted in no chemiluminescence

**Q.** What about the “stability of stock solution on storage” value [6] of the same molecule?
**A.** stable indefinitely

**Q.** What about the “duration of light emission” value [7] of the same molecule?
**A.** 20 s

**Q.** For `Oc1ccc2c(c1)C1(OOC13C1CC4CC(C1)CC3C4)c1ccccc1-2` (stereo not shown) [Dioxetane 4a], which “base-induced chemiluminescence” value [1] is on record?
**A.** produced chemiluminescence at room temperature

**Q.** And the “triggering properties” value [4]?
**A.** triggering properties similar to dioxetanes 2a-c and 2e

**Q.** For `CC(C)(C)[Si](C)(C)Oc1ccc2c(c1)C1(OOC13C1CC4CC(C1)CC3C4)c1ccccc1-2` (stereo not shown) [Dioxetane 4b, Dispiro[adamantane-2,3'-[1,2]dioxetane-4',9"-(2-tert-butyldimethylsilyloxy-9-fluorene)]], which “fluoride induced chemiluminescence in polar aprotic solvents” value [3] is on record?
**A.** bright chemiluminescence

**Q.** Which results are given for `Oc1ccc2c(c1)Oc1ccccc1C21OOC12C1CC3CC(C1)CC2C3` (stereo not shown) [Dioxetane 6a]?
**A.** base-induced chemiluminescence [1]: produced chemiluminescence at room temperature; triggering properties [4]: triggering properties similar to dioxetanes 2a-c and 2e

**Q.** With `CC(C)(C)[Si](C)(C)Oc1ccc2c(c1)Oc1ccccc1C21OOC12C1CC3CC(C1)CC2C3` (stereo not shown) [Dioxetane 6b] as the molecule, how does the “fluoride induced chemiluminescence in polar aprotic solvents” value [3] read?
**A.** bright chemiluminescence

**Q.** And the “triggering properties” value [4]?
**A.** triggering properties similar to dioxetanes 2a-c and 2e

**Q.** With `CC(=O)Oc1ccc2c(c1)Oc1ccccc1C21OOC12C1CC3CC(C1)CC2C3` (stereo not shown) [Dioxetane 6c] as the molecule, how does the “triggering properties” value [4] read?
**A.** triggering properties similar to dioxetanes 2a-c and 2e

**Q.** For `O=P(O)(O)Oc1ccc2c(c1)Oc1ccccc1C21OOC12C1CC3CC(C1)CC2C3` (stereo not shown) [Dioxetane 6d, Dispiro[adamantane-2,3'-[1,2]dioxetane-4',9"-(3-phosphate-9H-xanthene]], which “period of chemiluminescence after enzyme addition” value [8] is on record?
**A.** 2 to 3 min

**Q.** With `COC1(c2cccc(O)c2)OOC12C1CC3CC(C1)CC2C3` (stereo not shown) [Dioxetane 8a] as the molecule, how does the “base-induced chemiluminescence” value [1] read?
**A.** produced chemiluminescence at room temperature

**Q.** For `COC1(c2cccc(O[Si](C)(C)C(C)(C)C)c2)OOC12C1CC3CC(C1)CC2C3` (stereo not shown) [Dioxetane 8b, 4-(3-tert-Butyldimethylsilyloxyphenyl)-4-methoxyspiro[1,2-dioxetane-3,2'-adamantane]], which “fluoride induced chemiluminescence in polar aprotic solvents” value [3] is on record?
**A.** bright chemiluminescence

**Q.** For `Oc1ccc(C23OCCOC2(c2ccccc2)OO3)cc1` (stereo not shown) [deprotonated dioxetane (X=O^-)], which “decomposition rate relative to protonated form (X=OH)” value [9] is on record?
**A.** 5.7×10^6 times faster

**Q.** Which “effect of enzyme inhibitor on light emission” value ([5]; added at maximum emission of 2e, Tris buffer, 1.5 μL enzyme) does the source give for `CCCCCCCCCCCCOS(=O)(=O)[O-].[Na+]` [sodium lauryl sulfate (SDS), sodium lauryl sulfate, reference compound] here?
**A.** irreversible decrease in the intensity

**Q.** For `CC(=O)Oc1cccc2ccccc12` [α-naphthyl acetate, reference compound], which “effect of added competing esterase substrate on light intensity” value [5] is on record?
**A.** rapid decrease in light intensity

**Q.** Which “effect of added competing esterase substrate on light intensity” value [5] does the source give for `CC(=O)Oc1ccc2ccccc2c1` [β-naphthyl acetate, reference compound] here?
**A.** rapid decrease in light intensity
